Measurements taken from patent US10723709B2, “Protease inhibitors” (MEDIVIR AB, priority 2008, dated 2020).

Key:
[1] = In vivo mouse PK, oral administration (FIG. 1); set-up: species or system male C57Bl mice; details: mice, orally administered 60 μmol/kg in 1% Methocel A4C vehicle; compared with Example 2 of WO2008 007107
Description: FIG. 1 depicts plasma concentration against time for male C57Bl mice orally administered a compound of the invention or a compound of the prior art.
Various embodiments of the invention will now be described by way of illustration only with reference to the following Examples and FIG. 1 which depicts plasma concentration against time for male C57Bl mice orally administered a compound of the invention or a compound of the prior art.

[2] = reference markers of the permeability assay; cited from earlier work

Description for Caco-2 cells: This experiment measures transport of inhibitors through the cells of the human gastroenteric canal. The assay uses the well known Caco-2 cells with a passage number between 40 and 60.
Apical to Basolateral Transport
The basolateral and the apical wells will contain 1.5 mL and 0.4 mL transport buffer (TB), respectively, and the standard concentration of the tested substances is 10 μM. Furthermore all test solutions and buffers will contain 1% DMSO. Prior to the experiment the transport plates are pre-coated with culture medium containing 10% serum for 30 minutes to avoid nonspecific binding to plastic material. After 21 to 28 days in culture on filter supports the cells are ready for permeability experiments. […]
0.5 mL transport buffer (HBSS, 25 mM MES, pH 6.5) is added to the inserts and the cell monolayers equilibrated in the transport buffer system for 30 minutes at 37° C. in a polymix shaker. After being equilibrated to the buffer system the Transepithelial electrical resistance value (TEER) is measured in each well by an EVOM chop stick instrument. […]
300 μL will be taken from the basolateral (receiver) wells at each scheduled time point and the post value of TEER is measured at the end the experiment. […]
Determination of the cumulative fraction absorbed, FAcum, versus time. FAcum is calculated from: […]
The determination of permeability coefficients (Papp, cm/s) are calculated from: […]

Row | Compound | % absorption in man [2] | other results
1 | C#C[C@@H]1CN(C(=O)[C@H](CC(C)C)NC(=O)c2ccc(-c3nc(N4CCN(C)CC4)sc3F)cc2)[C@@H]2C(=O)CO[C@H]12 [Example 2, N-[1-6-(ethynyl-3-oxo-hexahydro-furo[3,2-b]pyrrole-4-carbonyl)-3-methyl-butyl]-4-[5-fluoro-2-(4-methyl-piperazin-1-yl)thiazol-4-yl]-benzamide] |  | in vivo exposure (whether measured as Cmax or AUC) [1]: very much greater
2 | N[C@@H](Cc1ccccc1)C(=O)O [L-Phenylalanine] | 100% | 
3 | OC[C@@H](O)[C@@H](O)[C@H](O)[C@H](O)CO [Mannitol] | 16% | 
4 | CN(Cc1cnc2nc(N)nc(N)c2n1)c1ccc(C(=O)N[C@@H](CCC(=O)O)C(=O)O)cc1 [Methotrexate] | 20% | 
5 | N—((S)-1-((3aS, 6R, 6aS)-6-methoxy-oxodihydro-2H-furo[3,2-b]pyrrol-4(5H, 6H, 6aH)-yl)-4-methyl-oxopentan-2-yl)-4-(2-(4-methylpiperazine-1-yl)thiazol-4-yl)benzamide |  | papp value (Caco-2 cells): 9e-07 cm/s
